Series [1] addresses T1, Phosphoethanolamine methyltransferase (PfPMT) (Plasmodium falciparum, UniProt Q8IDQ9).
T1 construct: gene PMT; recombinant PfPMT expressed from pET-24a in BL21 (DE3), ~30 kDa
T1 sequence (Q8IDQ9 1-266): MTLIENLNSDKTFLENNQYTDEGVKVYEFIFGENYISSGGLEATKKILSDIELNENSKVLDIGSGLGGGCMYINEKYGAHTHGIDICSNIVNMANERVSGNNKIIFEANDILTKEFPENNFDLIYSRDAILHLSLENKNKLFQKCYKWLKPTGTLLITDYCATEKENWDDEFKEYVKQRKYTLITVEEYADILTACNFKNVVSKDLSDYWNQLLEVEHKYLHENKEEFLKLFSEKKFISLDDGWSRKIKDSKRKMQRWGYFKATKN
Kind of series: enzyme-coupled SAM methyltransferase colorimetric assay ([…] nm), Michaelis-Menten kinetics with varied pEth. The class given is biochemical.

Substrate in the series “purified protein”: NCCOP(=O)(O)O
The experiment in a line: purified protein. The class given is biochemical, Plasmodium falciparum. The note with it: SAM substrate (phosphobase) site.

Like-named read-outs stand apart in the source and are kept apart here.

In general, Ki refers to the dissociation constant of the complex between target and ligand, obtained from inhibition or displacement. Turning to `COc1ccc(CCNC(=O)CNCC2CCCO2)cc1OC` (stereo not drawn) [ASN.3, N-[2-(3,4-Dimethoxy-phenyl)-ethyl]-2-[(tetrahydro-furan-2-ylmethyl)-amino]-acetamide], the Ki in series [1] (read-out: Ki) stood at 2200 nM. In turn, `NC(Cc1cc(=O)nc(-c2ccccn2)[nH]1)c1ccc(F)cc1` (stereo not drawn) [ASN.1, 6-[Amino-2-(4-fluoro-phenyl)-ethyl]-pyridin-2-yl-1H-pyrimidin-4-one] returned a Ki in series [1] of 1200 nM.

B1: Phosphoethanolamine methyltransferase (PfPMT) (Plasmodium falciparum 3D7) (protein)
chain: T1 sequence (Q8IDQ9 1-266)
notes: recombinant PfPMT expressed from pET-24a in BL21 (DE3), ~30 kDa
As a reminder, the Km is the concentration of substrate that gives half-maximal velocity. Regarding B1, in the series “purified protein”, the Km turned out to be 52.4 µM.

Values taken from article PMC6705855, “Computational and experimental elucidation of Plasmodium falciparum phosphoethanolamine methyltransferase inhibitors: Pivotal drug target” (PLoS ONE, 2019).
